The source of these data is patent publication US20240190880A1 (THE REGENTS OF THE UNIVERSITY OF MICHIGAN, priority 2021, published 2024).

A value given as a limit tells only on which side of the number the result lay.

One assay deals with T1, ER (Homo sapiens, UniProt P03372).
T1 construct: host or cells: T47D and MCF7 human breast cancer cells
T1 sequence (P03372 1-595): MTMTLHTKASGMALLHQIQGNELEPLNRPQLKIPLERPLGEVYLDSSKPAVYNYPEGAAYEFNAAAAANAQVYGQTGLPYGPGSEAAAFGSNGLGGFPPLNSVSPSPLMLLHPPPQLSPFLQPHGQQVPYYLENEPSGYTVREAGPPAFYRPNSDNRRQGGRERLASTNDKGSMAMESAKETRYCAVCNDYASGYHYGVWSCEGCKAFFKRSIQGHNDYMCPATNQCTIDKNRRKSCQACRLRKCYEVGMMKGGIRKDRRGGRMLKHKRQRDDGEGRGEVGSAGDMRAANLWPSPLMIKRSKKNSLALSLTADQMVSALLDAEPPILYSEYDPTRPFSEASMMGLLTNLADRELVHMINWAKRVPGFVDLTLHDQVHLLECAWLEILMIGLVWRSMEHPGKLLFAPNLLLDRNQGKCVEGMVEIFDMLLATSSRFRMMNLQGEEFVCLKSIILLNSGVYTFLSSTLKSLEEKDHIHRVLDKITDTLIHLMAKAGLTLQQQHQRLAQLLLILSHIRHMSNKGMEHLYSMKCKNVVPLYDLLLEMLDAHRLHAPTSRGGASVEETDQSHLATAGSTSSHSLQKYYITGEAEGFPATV
Description: ER degradation activity, in-cell western blot analysis in T47D cells. Type of assay: cell-based. The settings on record: 16 hours, Table A does not say which cell line (T47D or MCF7), read-out: Potency (DC50). In a few lines:
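Cells were seeded overnight, exposed to diluted compounds for 16 hours, then stained with primary antibodies and with infrared-labelled secondary antibodies (1:1000, 1 h RT). Plates were scanned on a CLX reader, and ER levels were normalised to DMSO-treated wells.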
Turning to `O=C1CCC(N2C(=O)c3cc4c(cc3C2=O)CN(CC2(F)CCN(C(=O)C3(F)CN(c5ccc([C@@H]6c7ccc(O)cc7CC[C@@H]6c6ccccc6)cc5)C3)CC2)C4)C(=O)N1` (stereo partly drawn) [E 202, 2-(2,6-dioxopiperidin-3-yl)-6-((4-fluoro-1-(3-fluoro-1-(4-((1R,2S)-6-hydroxy-2-phenyl-1,2,3,4-tetrahydronaphthalen-1-yl)phenyl)azetidine-3-carbonyl)piperidin-4-yl)methyl)-6,7-dihydropyrrolo[3,4-f]isoindole-1,3(2H,5H)-dione], the DC50 is over 100 nM.

Regarding `C[C@@H]1Cc2cc(O)ccc2[C@@H](c2c(F)cc(N3CCC4(CCN(C(=O)CN5Cc6cc7c(cc6C5)C(=O)N(C5CCC(=O)NC5=O)C7)C4)C3)cc2F)N1CC(C)(F)F` (stereo partly drawn) [E 28, 3-(6-(2-(7-(4-((1S,3R)-2-(2,2-difluoropropyl)-6-hydroxy-3-methyl-1,2,3,4-tetrahydroisoquinolin-1-yl)-3,5-difluorophenyl)-2,7-diazaspiro[4.4]nonan-2-yl)-2-oxoethyl)-1-oxo-3,5,6,7-tetrahydropyrrolo[3,4-f]isoindol-2(1H)-yl)piperidine-2,6-dione], the DC50 is over 100 nM.

Regarding `C[C@H]1CC2(CCN(C(=O)CN3Cc4cc5c(cc4C3)C(=O)N(C3CCC(=O)NC3=O)C5=O)CC2)CN1c1ccc([C@@H]2c3ccc(O)cc3CC[C@@H]2c2ccccc2)cc1` (mixture of isomers) [E 143, Rac-2-(2,6-dioxopiperidin-3-yl)-6-(2-((S)-2-(4-((1R,2S)-6-hydroxy-2-phenyl-1,2,3,4-tetrahydronaphthalen-1-yl)phenyl)-3-methyl-2,8-diazaspiro[4.5]decan-8-yl)-2-oxoethyl)-6,7-dihydropyrrolo[3,4-f]isoindole-1,3(2H,5H)-dione], the DC50 is 10 to 100 nM.

With `C[C@@H]1Cc2cc(O)ccc2[C@@H](c2c(F)cc(N3CC4(CCN(CC(=O)N5Cc6cc7c(cc6C5)C(=O)N(C5CCC(=O)NC5=O)C7=O)CC4)C3)cc2F)N1CC(C)(F)F` (stereo partly drawn) [E 25, 6-(2-(2-(4-((1S,3R)-2-(2,2-difluoropropyl)-6-hydroxy-3-methyl-1,2,3,4-tetrahydroisoquinolin-1-yl)-3,5-difluorophenyl)-2,7-diazaspiro[3.5]nonan-7-yl)acetyl)-2-(2,6-dioxopiperidin-3-yl)-6,7-dihydropyrrolo[3,4-f]isoindole-1,3(2H,5H)-dione], the DC50 was over 100 nM.

Take `C[C@@H]1Cc2c([nH]c3ccccc23)[C@@H](c2c(F)cc(-c3cnc(C(=O)N4CCC(N5Cc6cc7c(cc6C5)C(=O)N(C5CCC(=O)NC5=O)C7=O)CC4)nc3)cc2F)N1CC(F)F` (stereo partly drawn) [E 309, 6-(1-(5-(4-((1R,3R)-2-(2,2-difluoroethyl)-3-methyl-2,3,4,9-tetrahydro-1H-pyrido[3,4-b]indol-1-yl)-3,5-difluorophenyl)pyrimidine-2-carbonyl)piperidin-4-yl)-2-(2,6-dioxopiperidin-3-yl)-6,7-dihydropyrrolo[3,4-f]isoindole-1,3(2H,5H)-dione]: the DC50 is 10 to 100 nM.

Regarding `C[C@@H]1Cc2cc(O)ccc2[C@@H](c2ccc(N3CCC(C(=O)N4CCC(N5Cc6cc7c(cc6C5)C(=O)N(C5CCC(=O)NC5=O)C7=O)CC4)CC3)cc2)N1CC(F)F` (stereo partly drawn) [E 318, 6-(1-(1-(4-((1R,3R)-2-(2,2-difluoroethyl)-6-hydroxy-3-methyl-1,2,3,4-tetrahydroisoquinolin-1-yl)phenyl)piperidine-4-carbonyl)piperidin-4-yl)-2-(2,6-dioxopiperidin-3-yl)-6,7-dihydropyrrolo[3,4-f]isoindole-1,3(2H,5H)-dione], the DC50 is under 10 nM.

Take `C[C@@H]1Cc2c([nH]c3ccccc23)[C@@H](c2c(F)cc(N3CCC(N4CCC(CN5Cc6cc7c(cc6C5)C(=O)N(C5CCC(=O)NC5=O)C7)CC4)CC3)cc2F)N1CC(F)F` (stereo partly drawn) [E 86, 3-(6-((1′-(4-((1R,3R)-2-(2,2-difluoroethyl)-3-methyl-2,3,4,9-tetrahydro-1H-pyrido[3,4-b]indol-1-yl)-3,5-difluorophenyl)-[1,4′-bipiperidin]-4-yl)methyl)-1-oxo-3,5,6,7-tetrahydropyrrolo[3,4-f]isoindol-2(1H)-yl)piperidine-2,6-dione]: the DC50 lay within 10 to 100 nM.

On to `CCC(=C(c1ccc(O)cc1)c1ccc(N2CCC3(CC2)CN(C(=O)CN2CCc4cc5c(cc4C2)C(=O)N(C2CCC(=O)NC2=O)C5=O)C3)cc1)c1ccccc1` (stereo not shown) [E 194, 2-(2,6-dioxopiperidin-3-yl)-6-(2-(7-(4-(1-(4-hydroxyphenyl)-2-phenylbut-1-en-1-yl)phenyl)-2,7-diazaspiro[3.5]nonan-2-yl)-2-oxoethyl)-5,6,7,8-tetrahydro-1H-pyrrolo[3,4-g]isoquinoline-1,3(2H)-dione], for which the DC50 was in the range of 10 to 100 nM.

As to `C[C@@H]1Cc2c([nH]c3ccccc23)[C@@H](c2c(F)cc(N3CCC4(CCN(C(=O)CN5Cc6cc7c(cc6C5)C(=O)N(C5CCC(=O)NC5=O)C7=O)CC4)CC3)cc2F)N1CC(F)F` (stereo partly drawn) [E 112, 6-(2-(9-(4-((1R,3R)-2-(2,2-difluoroethyl)-3-methyl-2,3,4,9-tetrahydro-1H-pyrido[3,4-b]indol-1-yl)-3,5-difluorophenyl)-3,9-diazaspiro[5.5]undecan-3-yl)-2-oxoethyl)-2-(2,6-dioxopiperidin-3-yl)-6,7-dihydropyrrolo[3,4-f]isoindole-1,3(2H,5H)-dione], the DC50 was under 10 nM.

`O=C1CCC(N2C(=O)c3cc4c(cc3C2=O)CN(CC(=O)N2CCC3(CC2)CCN(c2ccc([C@@H]5c6ccc(O)cc6CC[C@@H]5c5ccccc5)cn2)CC3)C4)C(=O)N1` (mixture of isomers) [E 297, Rac-2-(2,6-dioxopiperidin-3-yl)-6-(2-(9-(5-((1S,2S)-6-hydroxy-2-phenyl-1,2,3,4-tetrahydronaphthalen-1-yl)pyridin-2-yl)-3,9-diazaspiro[5.5]undecan-3-yl)-2-oxoethyl)-6,7-dihydropyrrolo[3,4-f]isoindole-1,3(2H,5H)-dione]: the DC50 is over 100 nM.

In the case of `O=C1CCC(N2Cc3cc4c(cc3C2=O)CN(CC(=O)N2CCC3(CCN(c5ccc([C@@H]6c7ccc(O)cc7CC[C@@H]6c6ccccc6)cc5)CC3)C2)C4)C(=O)N1` (mixture of isomers) [E 4, rac-3-(6-(2-(8-(4-((1R,2S)-6-hydroxy-2-phenyl-1,2,3,4-tetrahydronaphthalen-1-yl)phenyl)-2,8-diazaspiro[4.5]decan-2-yl)-2-oxoethyl)-1-oxo-3,5,6,7-tetrahydropyrrolo[3,4-f]isoindol-2(1H)-yl)piperidine-2,6-dione], the DC50 fell in the range of 10 to 100 nM.

Staying with this assay, now noted: compounds 16 hours, Table A does not say whether T47D or MCF7, read-out: Potency (DC50).
In the case of `C[C@@H]1Cc2cc(O)ccc2[C@@H](c2c(F)cc(N(C)C3CC4(CCN(C(=O)CN5Cc6cc7c(cc6C5)C(=O)N(C5CCC(=O)NC5=O)C7=O)CC4)C3)cc2F)N1CC(F)F` (stereo partly drawn) [E 452, 6-(2-(2-((4-((1S,3R)-2-(2,2-difluoroethyl)-6-hydroxy-3-methyl-1,2,3,4-tetrahydroisoquinolin-1-yl)-3,5-difluorophenyl)(methyl)amino)-7-azaspiro[3.5]nonan-7-yl)-2-oxoethyl)-2-(2,6-dioxopiperidin-3-yl)-6,7-dihydropyrrolo[3,4-f]isoindole-1,3(2H,5H)-dione], the DC50 was in the range of 10 to 100 nM.

For `C[C@@H]1Cc2cc(O)ccc2[C@@H](c2c(F)cc(C(=O)N3CC4(CCC(CN5Cc6cc7c(cc6C5)C(=O)N(C5CCC(=O)NC5=O)C7=O)CC4)C3)cc2F)N1CC(F)F` (stereo partly drawn) [E 464, 6-((2-(4-((1S,3R)-2-(2,2-difluoroethyl)-6-hydroxy-3-methyl-1,2,3,4-tetrahydroisoquinolin-1-yl)-3,5-difluorobenzoyl)-2-azaspiro[3.5]nonan-7-yl)methyl)-2-(2,6-dioxopiperidin-3-yl)-6,7-dihydropyrrolo[3,4-f]isoindole-1,3(2H,5H)-dione], the DC50 is over 100 nM.
